# In publication PMC7614683, “A small molecule PI3Kα activator for cardioprotection and neuroregeneration” (Nature, 2023):
# Legend:
# [1] = tested on: p110α-mutants D603K, D603A, 603DCN_AAA605, D603A/F1016S, L1006R, F1016S, L1006R/F1016S; test: ADP-Glo catalytic activity, mutants in the 1938-binding pocket; format: biochemical, human; conditions: all mutants
# Description: Expression and purification of mutants resistant to 1938 were performed as follows. Sf9 insect cells (1.5 L) were cultured in Insect-XPRESS with L-Glutamine medium (Lonza BE12-730Q) at 27°C and co-infected with baculovirus encoding the regulatory p85α-subunit [LMB-MRC plasmid OP809] and the catalytic subunit p110α-D603K [LMB-MRC plasmid OP895], D603A [OP900], 603DCN_AAA605 [OP894], D603A/F1016S [OP901], L1006R [OP897], F1016S [OP898], L1006R/F1016S [OP899] at a density of 1.6 × 10^6 cells/ml. The culture was incubated for 47 h after infection, cells were collected, flash-frozen in liquid N2 and stored at -80°C. For purification, cell pellets were resuspended in 50 ml of lysis buffer (20 mM Tris, 150 mM NaCl, 5% glycerol, 1 mM TCEP, pH 8.0) containing EDTA-free Protease inhibitor tablets (1 tablet per 50 ml of solution), 0.5 mM PEFA and 5 μl of Piece® Universal Nuclease For Cell Lysis. The suspension was sonicated for 3 min on ice, with 10 sec on and 10 sec off. […]
# For characterisation of the effects of 1938 on in vitro PI3K enzymology, all reactions were performed at room temperature with 384 white-polystyrene plates (Corning #3574). […] Data was expressed as velocity (nmol of ADP generated/nmol of enzyme/sec). […] Luminescence was read using a PHERAstar® plate reader with software version 5.41, and analyses were performed using GraphPad Prism 8/9.
# rat sciatic nerve = test: pAkt generation in exposed rat sciatic nerves; format: in vivo; conditions: direct injection or bathing, 1938 5 μM, 30 min
# Description: To assess if 1938 could induce pAkt generation in exposed rat sciatic nerves, adult male Sprague Dawley rats (>250g; n=2) were anaesthetised using isoflurane, the left sciatic nerve was exposed and injected with 2 μl vehicle (sterile dH2O) or 1938 (5 μM in sterile dH2O). Meanwhile the right sciatic nerve was exposed and bathed in 250 μl of vehicle (sterile dH2O) or 1938 (5 μM in sterile dH2O). Each animal received one vehicle and one compound treatment. The treatments were left on for 30 min prior to washing the bathed nerves with sterile PBS and culling via sodium pentobarbital injection according to local regulations. Nerves were then harvested, washed in fresh 4°C PBS and stored in a fresh vial before snap freezing in liquid nitrogen. Frozen sciatic nerves were homogenised in RIPA buffer supplemented with protease and phosphatase inhibitors using a mortar and pestle homogeniser. The subsequent crude lysates were centrifuged at 10,000xg for 10 min at 4°C, the supernatant harvested and stored at -80°C prior to automated western blot (Wes) analysis for pAkt and controls (Extended Data Fig. 9a; bottom panel).
# MCF10A cells = test: pAKT S473 western blot, MCF10A; format: cell-based, human
smiles,measurement,setting,value
CCN1CCN(c2ccc(Nc3cc(Nc4cccc5c4N(C(C)=O)CC5)ccn3)cc2)CC1 [Compound 1938],activation of 1938-binding pocket p110α-mutants,[1],resistant to activation by 1938
same,pAKT in exposed sciatic nerves,rat sciatic nerve,pAKT induction
same,pAKT^S473 increase,MCF10A cells,BYL719-sensitive increase in pAKT^S473
